Source: ChEMBL document CHEMBL4184317, “Discovery of Tetrahydroquinoxalines as Bromodomain and Extra-Terminal Domain (BET) Inhibitors with Selectivity for the Second Bromodomain” (J Med Chem, 2018)

Tests used:
[1] = molecular target: Bromodomain testis-specific protein (Homo sapiens, UniProt Q58F21); assay: Inhibition of BRDT BD2 (unknown origin) after 30 mins by TR-FRET assay
[2] = molecular target: Bromodomain-containing protein 4 (Homo sapiens, UniProt O60885); assay: Binding affinity to human partial length DNA-tagged BRD4 isoform long BD2 expressed in bacterial by BROMOscan method
[3] = molecular target: Bromodomain-containing protein 3 (Homo sapiens, UniProt Q15059); assay: Binding affinity to human partial length DNA-tagged BRD3 BD2 expressed in bacterial by BROMOscan method
Bromodomain-containing protein 3, sequence (Q15059 whole entry, canonical isoform): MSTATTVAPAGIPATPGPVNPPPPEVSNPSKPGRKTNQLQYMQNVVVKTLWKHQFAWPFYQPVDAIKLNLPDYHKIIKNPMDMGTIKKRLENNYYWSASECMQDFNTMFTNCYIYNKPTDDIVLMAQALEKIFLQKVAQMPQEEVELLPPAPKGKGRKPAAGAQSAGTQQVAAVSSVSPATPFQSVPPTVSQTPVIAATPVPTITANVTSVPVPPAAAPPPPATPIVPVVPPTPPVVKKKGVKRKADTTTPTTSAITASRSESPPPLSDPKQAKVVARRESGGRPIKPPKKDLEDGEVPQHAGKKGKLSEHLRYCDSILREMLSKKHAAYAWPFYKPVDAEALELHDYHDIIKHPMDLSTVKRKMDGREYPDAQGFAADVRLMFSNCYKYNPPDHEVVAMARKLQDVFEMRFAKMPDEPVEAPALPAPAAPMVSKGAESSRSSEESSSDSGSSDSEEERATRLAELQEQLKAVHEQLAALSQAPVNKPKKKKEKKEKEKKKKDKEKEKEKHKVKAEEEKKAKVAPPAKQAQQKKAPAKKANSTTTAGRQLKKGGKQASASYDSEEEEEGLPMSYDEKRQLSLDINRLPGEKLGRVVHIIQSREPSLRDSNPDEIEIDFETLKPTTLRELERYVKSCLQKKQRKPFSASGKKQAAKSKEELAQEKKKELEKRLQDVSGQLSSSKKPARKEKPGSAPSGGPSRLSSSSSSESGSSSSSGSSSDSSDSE

[4] = molecular target: Bromodomain-containing protein 9 (Homo sapiens, UniProt Q9H8M2); assay: Binding affinity to human partial length DNA-tagged BRD9 isoform 1 expressed in bacteria by BROMOscan method
Bromodomain-containing protein 9, sequence (Q9H8M2 whole entry, canonical isoform): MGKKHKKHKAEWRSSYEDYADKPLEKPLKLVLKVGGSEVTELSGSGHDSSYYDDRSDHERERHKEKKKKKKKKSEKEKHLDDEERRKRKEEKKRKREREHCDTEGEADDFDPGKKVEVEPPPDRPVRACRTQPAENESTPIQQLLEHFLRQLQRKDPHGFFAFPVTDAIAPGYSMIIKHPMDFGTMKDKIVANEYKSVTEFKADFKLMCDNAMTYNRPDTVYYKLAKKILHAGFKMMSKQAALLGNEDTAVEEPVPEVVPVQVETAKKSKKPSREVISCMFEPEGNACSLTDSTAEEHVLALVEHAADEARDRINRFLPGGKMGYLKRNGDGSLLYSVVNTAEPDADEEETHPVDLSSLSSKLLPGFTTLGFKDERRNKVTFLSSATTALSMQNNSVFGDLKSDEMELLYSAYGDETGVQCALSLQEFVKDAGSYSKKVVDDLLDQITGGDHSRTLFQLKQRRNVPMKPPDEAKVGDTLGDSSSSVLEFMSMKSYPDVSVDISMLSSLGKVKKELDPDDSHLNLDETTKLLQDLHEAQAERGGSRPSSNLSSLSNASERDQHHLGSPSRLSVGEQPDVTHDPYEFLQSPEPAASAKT

[5] = molecular target: Bromodomain-containing protein 2 (Homo sapiens, UniProt P25440); assay: Selectivity ratio of Kd for human partial length DNA-tagged BRD2 isoform 1 BD1 to Kd for human partial length DNA-tagged BRD2 isoform 1 BD2
Bromodomain-containing protein 2, sequence (P25440 whole entry, looked up, canonical isoform): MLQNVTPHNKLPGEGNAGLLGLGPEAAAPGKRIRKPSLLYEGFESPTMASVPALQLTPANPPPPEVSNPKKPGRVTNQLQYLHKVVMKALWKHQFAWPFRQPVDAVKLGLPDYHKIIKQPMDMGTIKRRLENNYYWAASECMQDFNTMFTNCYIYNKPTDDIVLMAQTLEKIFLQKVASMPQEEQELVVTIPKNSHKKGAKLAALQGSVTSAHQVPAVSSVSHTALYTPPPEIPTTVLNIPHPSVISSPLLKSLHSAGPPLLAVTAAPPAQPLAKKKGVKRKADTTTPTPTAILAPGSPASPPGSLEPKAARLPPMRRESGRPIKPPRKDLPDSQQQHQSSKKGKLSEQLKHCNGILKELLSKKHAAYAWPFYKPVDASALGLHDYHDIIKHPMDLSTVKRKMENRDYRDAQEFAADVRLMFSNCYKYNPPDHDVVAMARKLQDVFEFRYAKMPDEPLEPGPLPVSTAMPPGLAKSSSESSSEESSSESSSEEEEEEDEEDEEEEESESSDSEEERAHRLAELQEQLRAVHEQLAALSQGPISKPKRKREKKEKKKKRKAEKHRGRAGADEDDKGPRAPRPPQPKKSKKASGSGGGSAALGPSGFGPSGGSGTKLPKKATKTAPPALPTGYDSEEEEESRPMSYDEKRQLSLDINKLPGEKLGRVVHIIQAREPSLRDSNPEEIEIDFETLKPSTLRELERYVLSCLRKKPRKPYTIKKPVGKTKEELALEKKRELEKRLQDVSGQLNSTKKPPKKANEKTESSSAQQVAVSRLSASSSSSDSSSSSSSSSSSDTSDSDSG

Homo sapiens = species on record: Homo sapiens; assay: Selectivity ratio of Kd for human partial length DNA-tagged BRPF1 to Kd for human partial length DNA-tagged BRD4 isoform long BD2

CC(=O)N1c2ccc(C3=CCNCC3)cc2N(Cc2ccccc2CO)C[C@@H]1C1CC1
IC50 [1]: 200 nM | Kd [2]: 6.61 nM | Kd [3]: 19.5 nM | Kd [4]: > 30200 nM | Selectivity ratio [5]: 41 | Selectivity ratio (Homo sapiens): 372
